Test results as given in ChEMBL document CHEMBL1201862, “PubChem BioAssay data set” (2004).
Calls of active or inactive are those of the source.

Experiments:
Cannabinoid receptor 1 [1] = target: T1, Cannabinoid receptor 1 (Homo sapiens, UniProt P21554); assay: SAR analysis of antagonists of the Cannabinoid Receptor 1 using an Image-Based Assay - Set 4. [Related pubchem assays (depositor defined):AID2013, AID2026]; format: functional
Cannabinoid receptor 2 [2] = target: T2, Cannabinoid receptor 2 (Homo sapiens, UniProt P34972); assay: SAR analysis of agonists of the Cannabinoid Receptor 2 using an Image-Based Assay - Set 3. [Related pubchem assays (depositor defined):AID2013, AID2026]; format: functional
T2 sequence (P34972 whole entry): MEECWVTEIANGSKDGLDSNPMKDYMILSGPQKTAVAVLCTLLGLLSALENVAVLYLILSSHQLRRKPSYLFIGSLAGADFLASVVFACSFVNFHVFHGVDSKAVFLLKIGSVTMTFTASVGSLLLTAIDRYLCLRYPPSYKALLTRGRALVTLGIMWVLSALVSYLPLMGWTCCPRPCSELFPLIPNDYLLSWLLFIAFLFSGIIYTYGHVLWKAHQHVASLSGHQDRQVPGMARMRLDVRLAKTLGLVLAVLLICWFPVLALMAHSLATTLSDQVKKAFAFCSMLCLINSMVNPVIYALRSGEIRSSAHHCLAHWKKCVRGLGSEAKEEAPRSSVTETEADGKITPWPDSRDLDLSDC

[3] = target: T3, G-protein coupled receptor 35 (Homo sapiens, UniProt Q9HC97); assay: SAR analysis of Agonists of the GPR35 Receptor using an Image-Based Assay - Set 4. [Related pubchem assays (depositor defined):AID2013, AID2026]; format: functional
T3 sequence (Q9HC97 whole entry): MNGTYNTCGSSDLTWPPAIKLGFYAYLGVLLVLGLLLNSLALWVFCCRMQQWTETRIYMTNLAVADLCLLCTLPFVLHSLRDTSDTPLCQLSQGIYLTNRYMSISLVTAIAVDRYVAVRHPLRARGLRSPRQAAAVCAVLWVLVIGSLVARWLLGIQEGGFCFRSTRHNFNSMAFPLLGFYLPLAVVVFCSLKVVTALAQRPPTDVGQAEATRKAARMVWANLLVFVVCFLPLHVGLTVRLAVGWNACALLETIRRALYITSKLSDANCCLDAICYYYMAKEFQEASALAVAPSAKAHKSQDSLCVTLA

[4] = target: T3, G-protein coupled receptor 35; assay: SAR analysis of Antagonists of the GPR35 Receptor using an Image-Based Assay - Set 6. [Related pubchem assays (depositor defined):AID2013, AID2026]; format: functional
[5] = target: G-protein coupled receptor 55 (Homo sapiens, UniProt Q9Y2T6); assay: SAR Analysis of Selective Antagonists of GPR55 using an Image-Based Assay - Set 4. [Related pubchem assays (depositor defined):AID2013, AID2026]; format: functional;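 note: antagonism of response to 5 µM lysophosphatidylinositol agonist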
Chain of G-protein coupled receptor 55 (Q9Y2T6 whole entry): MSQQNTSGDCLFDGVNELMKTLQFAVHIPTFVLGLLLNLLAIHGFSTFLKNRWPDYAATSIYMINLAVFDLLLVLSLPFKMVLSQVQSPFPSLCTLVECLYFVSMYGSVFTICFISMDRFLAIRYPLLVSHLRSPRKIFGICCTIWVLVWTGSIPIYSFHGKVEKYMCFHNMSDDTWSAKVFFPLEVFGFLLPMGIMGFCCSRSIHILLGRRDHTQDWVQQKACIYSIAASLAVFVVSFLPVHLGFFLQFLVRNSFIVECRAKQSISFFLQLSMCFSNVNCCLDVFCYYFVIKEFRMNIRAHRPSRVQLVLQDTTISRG

[6] = target: T4, Probable nicotinate-nucleotide adenylyltransferase (Staphylococcus aureus (strain N315), UniProt P65502); format: functional, Staphylococcus aureus subsp. aureus N315;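 for IC50 Mean: confirmatory dose-response retesting of NadD inhibitor hits first found in an ultra-high-throughput screen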
T4 sequence (P65502 whole entry): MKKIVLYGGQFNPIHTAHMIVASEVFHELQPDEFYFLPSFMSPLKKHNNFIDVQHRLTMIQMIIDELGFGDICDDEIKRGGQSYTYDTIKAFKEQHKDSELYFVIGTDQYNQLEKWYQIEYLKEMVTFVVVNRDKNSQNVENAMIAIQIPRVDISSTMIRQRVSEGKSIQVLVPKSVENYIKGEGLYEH

Cannabinoid receptor 2 [7] = target: T2, Cannabinoid receptor 2; assay: SAR analysis of antagonists of the Cannabinoid Receptor 2 using an Image-Based Assay - Set 3. [Related pubchem assays (depositor defined):AID2013, AID2026]; format: functional
Cannabinoid receptor 1 [8] = target: T1, Cannabinoid receptor 1; assay: SAR analysis of agonists of the Cannabinoid Receptor 1 using an Image-Based Assay - Set 4. [Related pubchem assays (depositor defined):AID2013, AID2026]; format: functional
[9] = target: T4, Probable nicotinate-nucleotide adenylyltransferase; format: functional, Staphylococcus aureus subsp. aureus N315; conditions: read-out: IC50_Mean
[10] = target: T5, Delta-type opioid receptor (Homo sapiens, UniProt P41143); assay: HTS Image-Based Screen for Agonists of the DOR Receptor. [Related pubchem assays (depositor defined):AID1777, AID1786, AID2133]; format: functional
T5 sequence (P41143 whole entry): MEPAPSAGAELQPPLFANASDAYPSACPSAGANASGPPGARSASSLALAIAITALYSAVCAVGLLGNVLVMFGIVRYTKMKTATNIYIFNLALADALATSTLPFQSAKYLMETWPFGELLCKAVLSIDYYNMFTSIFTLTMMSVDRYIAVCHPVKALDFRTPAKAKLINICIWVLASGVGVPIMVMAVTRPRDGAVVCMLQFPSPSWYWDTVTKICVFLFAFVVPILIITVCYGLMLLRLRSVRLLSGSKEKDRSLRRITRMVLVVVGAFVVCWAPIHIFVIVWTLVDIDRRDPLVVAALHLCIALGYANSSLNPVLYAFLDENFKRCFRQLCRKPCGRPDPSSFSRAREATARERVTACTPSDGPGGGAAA

Mu-type opioid receptor = Mu-type opioid receptor (Homo sapiens, UniProt P35372); assay: HTS Image-Based Screen for Agonists of the MOR Receptor. [Related pubchem assays (depositor defined):AID1777, AID1785, AID1786, AID2133]; format: functional;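 note: imaging of beta-arrestin GFP recruitment into spots after receptor activation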
Chain of Mu-type opioid receptor (P35372 whole entry): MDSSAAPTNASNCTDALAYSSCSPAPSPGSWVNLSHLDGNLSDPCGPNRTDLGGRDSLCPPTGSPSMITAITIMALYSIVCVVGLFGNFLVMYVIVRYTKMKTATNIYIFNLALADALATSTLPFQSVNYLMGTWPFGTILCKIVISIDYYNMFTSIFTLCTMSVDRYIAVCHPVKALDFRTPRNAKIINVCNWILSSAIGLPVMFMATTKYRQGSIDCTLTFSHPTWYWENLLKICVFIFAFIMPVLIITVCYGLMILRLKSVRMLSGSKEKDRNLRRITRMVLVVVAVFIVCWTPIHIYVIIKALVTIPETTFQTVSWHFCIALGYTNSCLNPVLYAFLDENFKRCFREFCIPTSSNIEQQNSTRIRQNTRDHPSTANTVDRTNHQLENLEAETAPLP

[11] = target: T6, Kappa-type opioid receptor (Homo sapiens, UniProt P41145); format: functional
T6 sequence (P41145 whole entry): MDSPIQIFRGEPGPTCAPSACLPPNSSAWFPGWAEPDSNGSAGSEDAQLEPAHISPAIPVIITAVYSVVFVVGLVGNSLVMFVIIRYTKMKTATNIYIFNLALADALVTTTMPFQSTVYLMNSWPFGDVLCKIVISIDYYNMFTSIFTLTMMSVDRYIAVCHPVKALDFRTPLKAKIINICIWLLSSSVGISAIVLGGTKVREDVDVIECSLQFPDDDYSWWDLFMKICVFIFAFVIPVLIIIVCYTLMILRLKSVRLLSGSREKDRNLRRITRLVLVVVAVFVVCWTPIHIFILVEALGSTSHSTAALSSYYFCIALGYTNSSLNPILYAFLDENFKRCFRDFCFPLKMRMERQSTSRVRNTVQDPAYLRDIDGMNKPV

[12] = target: T6, Kappa-type opioid receptor; format: functional; remark: listed apart in the source
Beta-galactosidase = Beta-galactosidase (Escherichia coli, UniProt Q8VNN2); format: functional
Chain of Beta-galactosidase (Q8VNN2 whole entry): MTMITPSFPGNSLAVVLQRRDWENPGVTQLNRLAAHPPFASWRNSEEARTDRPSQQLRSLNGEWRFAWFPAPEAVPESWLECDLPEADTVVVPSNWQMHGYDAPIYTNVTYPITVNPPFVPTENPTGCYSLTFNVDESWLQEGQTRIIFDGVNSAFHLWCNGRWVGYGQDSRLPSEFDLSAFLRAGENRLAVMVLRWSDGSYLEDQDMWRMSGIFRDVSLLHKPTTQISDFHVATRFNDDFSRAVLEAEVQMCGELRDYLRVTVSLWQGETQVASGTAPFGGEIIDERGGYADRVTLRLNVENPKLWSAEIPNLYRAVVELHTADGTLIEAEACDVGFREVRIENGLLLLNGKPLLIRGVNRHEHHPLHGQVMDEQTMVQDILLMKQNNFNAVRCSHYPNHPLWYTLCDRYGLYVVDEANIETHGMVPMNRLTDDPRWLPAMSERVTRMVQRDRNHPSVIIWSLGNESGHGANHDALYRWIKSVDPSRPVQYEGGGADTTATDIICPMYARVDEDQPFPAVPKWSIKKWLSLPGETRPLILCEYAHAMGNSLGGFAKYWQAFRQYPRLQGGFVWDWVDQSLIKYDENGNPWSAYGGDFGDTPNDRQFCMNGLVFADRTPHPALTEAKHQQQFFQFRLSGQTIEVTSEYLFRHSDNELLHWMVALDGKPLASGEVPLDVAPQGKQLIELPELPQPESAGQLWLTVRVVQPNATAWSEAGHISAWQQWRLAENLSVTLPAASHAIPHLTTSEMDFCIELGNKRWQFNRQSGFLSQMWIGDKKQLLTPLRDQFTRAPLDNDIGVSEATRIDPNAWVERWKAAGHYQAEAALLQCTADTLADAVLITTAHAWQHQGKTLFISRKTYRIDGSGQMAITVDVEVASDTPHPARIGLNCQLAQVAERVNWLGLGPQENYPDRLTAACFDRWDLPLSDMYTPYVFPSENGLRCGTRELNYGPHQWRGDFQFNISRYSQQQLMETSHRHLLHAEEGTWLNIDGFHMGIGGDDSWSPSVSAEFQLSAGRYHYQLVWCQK

[13] = target: T5, Delta-type opioid receptor; assay: HTS Image-Based Screen for Antagonists of the DOR Receptor. [Related pubchem assays (depositor defined):AID1777, AID1785, AID1786, AID2133]; format: functional
[14] = Trypanosoma cruzi growth suppression in host cells – NIH3T3 host cells, beta-gal luminescence, confirmation (AID 2044); format: functional, cell-based;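 note: intracellular parasites grown in NIH/3T3 mouse fibroblasts as host cells; luminescent beta-galactosidase reporter signal from transgenic T. cruzi replicating inside host cells; inhibitors lower the luminescence signal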
BJ [15] = assay: cells; format: functional, cell-based; conditions: Homo sapiens
BJ [16] = assay: BJ-TERT-LT-ST fibroblast viability loss – cell-based, RAS-independent, luminescence, dose response (AID 1935); format: functional; conditions: Homo sapiens;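 note: BJ fibroblasts immortalized with TERT plus LT and ST oncogenes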
[17] = NIH3T3 cell viability loss – ATP luminescence, mouse fibroblasts, counter-screen, dose response (AID 2010); format: functional, cell-based;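 note: cells exposed to compound for about 90 hours before reading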
Mucolipin-3 = target: T7, Mucolipin-3 (Homo sapiens, UniProt Q8TDD5); assay: Fluorescence counterscreen assay for […] agonists: dose response cell-based high-throughput screening assay to identify agonists of the transient receptor potential channel ML3 (TRPML3). [Related pubchem assays: 1424, 1448 ]; format: functional
T7 sequence (Q8TDD5 whole entry): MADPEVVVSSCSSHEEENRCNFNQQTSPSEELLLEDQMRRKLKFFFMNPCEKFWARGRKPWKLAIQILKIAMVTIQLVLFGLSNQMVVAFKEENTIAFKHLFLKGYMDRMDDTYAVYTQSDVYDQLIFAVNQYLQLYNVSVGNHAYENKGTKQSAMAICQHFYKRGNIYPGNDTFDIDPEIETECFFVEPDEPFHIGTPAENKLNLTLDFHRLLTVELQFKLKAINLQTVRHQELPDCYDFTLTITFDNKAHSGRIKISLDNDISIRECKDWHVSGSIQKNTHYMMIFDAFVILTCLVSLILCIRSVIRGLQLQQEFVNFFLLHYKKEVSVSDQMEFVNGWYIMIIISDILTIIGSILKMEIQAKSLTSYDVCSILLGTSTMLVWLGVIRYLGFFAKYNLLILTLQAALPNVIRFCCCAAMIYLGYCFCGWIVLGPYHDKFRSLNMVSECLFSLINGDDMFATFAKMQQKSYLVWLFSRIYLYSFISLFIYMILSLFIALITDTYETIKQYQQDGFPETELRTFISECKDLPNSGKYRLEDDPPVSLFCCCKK

BJ [18] = assay: BJ-TERT fibroblast viability loss – cell-based, RAS-independent, luminescence, dose response (AID 1933); format: functional; conditions: Homo sapiens
[19] = microbe, parasite or virus in culture; format: functional; conditions: Mycobacterium tuberculosis
Ion channel NompC = Ion channel NompC (Danio rerio, UniProt Q7T1G6); assay: Dose response cell-based high-throughput screening assay for agonists of the transient receptor potential channel N1 (TRPN1). [Related pubchem assays (depositor defined):AID1424, AID1448]; format: functional
[20] = DRD fibroblast viability loss – cell-based, non-viral oncogenic, luminescence, dose response (AID 1934); format: functional; conditions: Homo sapiens

T1 sequence (P21554 whole entry): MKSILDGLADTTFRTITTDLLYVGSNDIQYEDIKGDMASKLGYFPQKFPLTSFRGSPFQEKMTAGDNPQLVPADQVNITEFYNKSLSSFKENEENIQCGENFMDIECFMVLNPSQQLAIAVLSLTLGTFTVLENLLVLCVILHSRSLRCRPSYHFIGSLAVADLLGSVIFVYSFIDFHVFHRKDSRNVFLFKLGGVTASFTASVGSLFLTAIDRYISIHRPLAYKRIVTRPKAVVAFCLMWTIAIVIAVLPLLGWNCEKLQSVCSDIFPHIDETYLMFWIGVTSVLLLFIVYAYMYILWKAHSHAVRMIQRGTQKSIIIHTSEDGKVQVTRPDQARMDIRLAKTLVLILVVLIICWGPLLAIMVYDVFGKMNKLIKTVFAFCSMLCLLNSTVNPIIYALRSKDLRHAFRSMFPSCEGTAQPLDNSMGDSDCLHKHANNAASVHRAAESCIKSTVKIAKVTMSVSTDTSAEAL

O=C(Nc1ccc(S(=O)(=O)Nc2nccs2)cc1)c1cc(-c2ccccc2)nc2ccccc12
IC50 (Cannabinoid receptor 1 [1]): 4.77 µM (active)
EC50 (Cannabinoid receptor 2 [2]): > 32 µM (inactive)
EC50 [3]: > 32 µM (inactive)
IC50 [4]: > 32 µM (inactive)
IC50 [5]: 5.75 µM (active)
IC50 [6]: 6.12 µM (active)
IC50 (Cannabinoid receptor 2 [7]): > 32 µM (inactive)
EC50 (Cannabinoid receptor 1 [8]): > 32 µM (inactive)
IC50 [9]: 20 µM (active)

CCOc1ccc2nc(N3C(=O)CNC3=S)sc2c1
EC50 [10]: > 32 µM (inactive)
EC50 (Mu-type opioid receptor): > 32 µM (inactive)
IC50 [11]: > 32 µM
IC50 [12]: 16.4 µM (active)
EC50 (Beta-galactosidase): > 31.5 µM (inactive)
IC50 [13]: > 32 µM (inactive)

CCN(CC)c1ccc(/C=C2\SC(=O)N(C(C)C)C2=O)o1
EC50 [14]: 2.09 µM (active)
EC50 (BJ [15]): 20.5 µM (active)
EC50 (BJ [16]): > 75 µM (inconclusive)
EC50 [17]: 18.4 µM (active)
EC50 (Mucolipin-3): > 9.97 µM (not active)
EC50 (BJ [18]): 11.7 µM (active)
CC50 [19]: 38.7 µM (active)
EC50 (Ion channel NompC): > 9.97 µM (inactive)
EC50 [20]: 35.7 µM (active)

N=c1c(C(=O)NCCN2CCOCC2)cc2c(=O)n3ccccc3nc2n1C1CCCC1
IC50 (Cannabinoid receptor 1 [1]): > 32 µM (inactive)
EC50 (Cannabinoid receptor 2 [2]): 8.59 µM (active)
EC50 [3]: > 32 µM (inactive)
IC50 [4]: > 32 µM (inactive)
IC50 [5]: > 32 µM (inactive)
IC50 (Cannabinoid receptor 2 [7]): > 32 µM (inactive)
EC50 (Cannabinoid receptor 1 [8]): > 32 µM (inactive)
